Patent US12304932B2, “PACAP stabilized peptide” (SENJU PHARMACEUTICAL CO., LTD., priority 2017, dated 2025)
Numbered stars: 1 amine (or outer) side, 2 acyl side, 3 side chain; on linkers, the order of the positions; unused ones are H or OH. Square brackets hold non-standard residues; d marks the D form. Peptide text beside a SMILES is read from it. * marks the point of attachment. Ala(1H-tetrazol-5-yl) = N[C@@H](Cc1nnn[nH]1)C(=O)O; X1 = O=C([C@H](CCc1nnn[nH]1)N[*:1])[*:2]; Nle = CCCC[C@H](N)C(=O)O; Ms = CS(=O)(=O)*

Assay: Peptide stability tests 2 and 3: Tris buffer pH 7.0, stored at 60° C., HPLC conditions 2
Type: physicochemical
Details: Tris buffer pH 7.0, 60° C.; for survival rate after correction for water, 60° C., 1-week storage / survival rate after correction for water, 60° C., 2-week storage: 100 μM peptide; for survival rate after correction for water, 60° C., 2-week storage: 2 weeks
Procedure: (§1) Peptides 1, 2 and 6 to 9 synthesized in Example 2 were weighed and dissolved in Tris buffer (pH 7.0) to prepare 1.0 mM peptide solutions. The solutions were filtered with a Chromatdisk (product of Merck Millipore, Millex-GV, 0.22 μm). Each filtrate was diluted to 100 μM with Tris buffer (pH 7.0) and dispensed into a tube (Protein LoBind Tube by Eppendorf Co.). The prepared peptide solutions were incubated for 1 week or 2 weeks in a 60° C. thermostatic bath to obtain stored samples. A simultaneously prepared sample among the peptide solutions that was not stored was used as a standard sample (initial sample). The standard sample and the stored samples were stored at −30° C. until sample analysis.
Each stored sample was measured under the following HPLC analysis conditions 2, and the survival rate after correction for water for each peptide among the stored samples was calculated in the same manner as Example 3.
Column: XSelect CSH C18 by Waters Co., 5 μm, 4.6×250 mm
Guard column: XSelect CSH C18 by Waters. Co., 5 μm, 4.6×20 mm Guard Cartridge
Detection wavelength: 220 nm
Mobile phase A: 0.1% formic acid in water
Mobile phase B: 0.1% formic acid in acetonitrile
Measuring time: 20 minutes
Measuring sample injection rate: 50 μL
Column temperature: 40° C.
Mobile phase delivery: The mixing ratio of mobile phase A and mobile phase B was varied as shown in Table 5 for linear concentration gradient control.
as §1, with “Peptides 12 to 25, 27” for “Peptides 1, 2”, “and 28” for “and 6 to 9”, “for one” for “for 1”
The survival rate after correction for water for each peptide among the stored samples was calculated in the same manner as Example 4, and the results are shown in Table 7.
as §1, with “29” for “1, 2 and 6”, “34” for “9”, “for” for “for 1 week or”
The survival rate after correction for water for each peptide among the stored samples was calculated in the same manner as Example 4, and the results are shown in Table 7-2.

Row | stability in aqueous solution, in words | Compound | survival rate after correction for water, 60° C., 1-week storage [%] | survival rate after correction for water, 60° C., 2-week storage [%]
1 | only equivalent stability | CC[C@H](C)[C@H](NC(=O)CNC(=O)[C@H](CC(=O)O)NC(=O)[C@H](CO)NC(=O)[C@H](Cc1cnc[nH]1)NC(C)=O)C(=O)N[C@@H](Cc1ccccc1)C(=O)N[C@H](C(=O)N[C@@H](CC(=O)O)C(=O)N[C@@H](CO)C(=O)N[C@@H](Cc1ccc(O)cc1)C(=O)N[C@@H](CO)C(=O)N[C@@H](CCCNC(=N)N)C(=O)N[C@@H](Cc1ccc(O)cc1)C(=O)N[C@@H](CCCNC(=N)N)C(=O)N[C@@H](CCCCN)C(=O)N[C@@H](CCC(N)=O)C(=O)N[C@@H](CCSC)C(=O)N[C@@H](C)C(=O)N[C@H](C(=O)N[C@@H](CCCCN)C(=O)N[C@@H](CCCCN)C(=O)N[C@@H](Cc1ccc(O)cc1)C(=O)N[C@@H](CC(C)C)C(=O)N[C@@H](C)C(=O)N[C@@H](C)C(=O)N[C@H](C(=O)N[C@@H](CC(C)C)C(N)=O)C(C)C)C(C)C)[C@@H](C)O [Peptide 2, reference compound] | 28.7 | 17.2
2 | drastically increased stability | CCCC[C@H](NC(=O)[C@H](CCC(N)=O)NC(=O)[C@H](CCCCN)NC(=O)[C@H](CCCNC(=N)N)NC(=O)[C@H](Cc1ccc(O)cc1)NC(=O)[C@H](CCCNC(=N)N)NC(=O)[C@H](CO)NC(=O)[C@H](Cc1ccc(O)cc1)NC(=O)[C@H](CO)NC(=O)[C@H](Cc1nnn[nH]1)NC(=O)[C@@H](NC(=O)[C@H](Cc1ccccc1)NC(=O)[C@@H](NC(=O)CNC(=O)[C@H](Cc1nnn[nH]1)NC(=O)[C@H](CO)NC(=O)[C@@H](N)Cc1c[nH]cn1)[C@@H](C)CC)[C@@H](C)O)C(=O)N[C@@H](C)C(=O)N[C@H](C(=O)N[C@@H](CCCCN)C(=O)N[C@@H](CCCCN)C(=O)N[C@@H](Cc1ccc(O)cc1)C(=O)N[C@@H](CC(C)C)C(=O)N[C@@H](C)C(=O)N[C@@H](C)C(=O)N[C@H](C(=O)N[C@@H](CC(C)C)C(N)=O)C(C)C)C(C)C [Peptide 6] (H-HS[Ala(1H-tetrazol-5-yl)]GIFT[Ala(1H-tetrazol-5-yl)]SYSRYRKQ[Nle]AVKKYLAAVL-NH2) | 91.3 | 82.4
3 | drastically increased stability | CC[C@H](C)[C@H](NC(=O)CNC(=O)[C@H](Cc1nnn[nH]1)NC(=O)[C@H](CO)NC(=O)[C@@H](N)Cc1c[nH]cn1)C(=O)N[C@@H](Cc1ccccc1)C(=O)N[C@H](C(=O)N[C@@H](Cc1nnn[nH]1)C(=O)N[C@@H](CO)C(=O)N[C@@H](Cc1ccc(O)cc1)C(=O)N[C@@H](CO)C(=O)N[C@@H](CCCNC(=N)N)C(=O)N[C@@H](Cc1ccc(O)cc1)C(=O)N[C@@H](CCCNC(=N)N)C(=O)N[C@@H](CCCCN)C(=O)N[C@@H](CCC(N)=O)C(=O)N[C@@H](CC(C)C)C(=O)N[C@@H](C)C(=O)N[C@H](C(=O)N[C@@H](CCCCN)C(=O)N[C@@H](CCCCN)C(=O)N[C@@H](Cc1ccc(O)cc1)C(=O)N[C@@H](CC(C)C)C(=O)N[C@@H](C)C(=O)N[C@@H](C)C(=O)N[C@H](C(=O)N[C@@H](CC(C)C)C(N)=O)C(C)C)C(C)C)[C@@H](C)O [Peptide 7] (H-HS[Ala(1H-tetrazol-5-yl)]GIFT[Ala(1H-tetrazol-5-yl)]SYSRYRKQLAVKKYLAAVL-NH2) | 91.7 | 84.8
4 | further increased stability | CCCC[C@H](NC(=O)[C@H](CCC(N)=O)NC(=O)[C@H](CCCCN)NC(=O)[C@H](CCCNC(=N)N)NC(=O)[C@H](Cc1ccc(O)cc1)NC(=O)[C@H](CCCNC(=N)N)NC(=O)[C@H](CO)NC(=O)[C@H](Cc1ccc(O)cc1)NC(=O)[C@H](CO)NC(=O)[C@H](Cc1nnn[nH]1)NC(=O)[C@@H](NC(=O)[C@H](Cc1ccccc1)NC(=O)[C@@H](NC(=O)CNC(=O)[C@H](Cc1nnn[nH]1)NC(=O)[C@H](CO)NC(=O)[C@H](Cc1c[nH]cn1)NC(C)=O)[C@@H](C)CC)[C@@H](C)O)C(=O)N[C@@H](C)C(=O)N[C@H](C(=O)N[C@@H](CCCCN)C(=O)N[C@@H](CCCCN)C(=O)N[C@@H](Cc1ccc(O)cc1)C(=O)N[C@@H](CC(C)C)C(=O)N[C@@H](C)C(=O)N[C@@H](C)C(=O)N[C@H](C(=O)N[C@@H](CC(C)C)C(N)=O)C(C)C)C(C)C [Peptide 8] (Ac-HS[Ala(1H-tetrazol-5-yl)]GIFT[Ala(1H-tetrazol-5-yl)]SYSRYRKQ[Nle]AVKKYLAAVL-NH2) | 98.1 | 92.9
5 | further increased stability | CC[C@H](C)[C@H](NC(=O)CNC(=O)[C@H](Cc1nnn[nH]1)NC(=O)[C@H](CO)NC(=O)[C@H](Cc1c[nH]cn1)NC(C)=O)C(=O)N[C@@H](Cc1ccccc1)C(=O)N[C@H](C(=O)N[C@@H](Cc1nnn[nH]1)C(=O)N[C@@H](CO)C(=O)N[C@@H](Cc1ccc(O)cc1)C(=O)N[C@@H](CO)C(=O)N[C@@H](CCCNC(=N)N)C(=O)N[C@@H](Cc1ccc(O)cc1)C(=O)N[C@@H](CCCNC(=N)N)C(=O)N[C@@H](CCCCN)C(=O)N[C@@H](CCC(N)=O)C(=O)N[C@@H](CC(C)C)C(=O)N[C@@H](C)C(=O)N[C@H](C(=O)N[C@@H](CCCCN)C(=O)N[C@@H](CCCCN)C(=O)N[C@@H](Cc1ccc(O)cc1)C(=O)N[C@@H](CC(C)C)C(=O)N[C@@H](C)C(=O)N[C@@H](C)C(=O)N[C@H](C(=O)N[C@@H](CC(C)C)C(N)=O)C(C)C)C(C)C)[C@@H](C)O [Peptide 9] (Ac-HS[Ala(1H-tetrazol-5-yl)]GIFT[Ala(1H-tetrazol-5-yl)]SYSRYRKQLAVKKYLAAVL-NH2) | 98.4 | 92.8
6 |  | CC[C@H](C)[C@H](NC(=O)CNC(=O)[C@H](Cc1nnn[nH]1)NC(=O)[C@H](CO)NC(=O)[C@H](Cc1c[nH]cn1)NS(C)(=O)=O)C(=O)N[C@@H](Cc1ccccc1)C(=O)N[C@H](C(=O)N[C@@H](Cc1nnn[nH]1)C(=O)N[C@@H](CO)C(=O)N[C@@H](Cc1ccc(O)cc1)C(=O)N[C@@H](CO)C(=O)N[C@@H](CCCNC(=N)N)C(=O)N[C@@H](Cc1ccc(O)cc1)C(=O)N[C@@H](CCCNC(=N)N)C(=O)N[C@@H](CCCCN)C(=O)N[C@@H](CCC(N)=O)C(=O)N[C@@H](CC(C)C)C(=O)N[C@@H](C)C(=O)N[C@H](C(=O)N[C@@H](CCCCN)C(=O)N[C@@H](CCCCN)C(=O)N[C@@H](Cc1ccc(O)cc1)C(=O)N[C@@H](CC(C)C)C(=O)N[C@@H](C)C(=O)N[C@@H](C)C(=O)N[C@H](C(=O)N[C@@H](CC(C)C)C(N)=O)C(C)C)C(C)C)[C@@H](C)O [Peptide 12] (Ms-HS[Ala(1H-tetrazol-5-yl)]GIFT[Ala(1H-tetrazol-5-yl)]SYSRYRKQLAVKKYLAAVL-NH2) | 97.0 | 93.6
7 |  | CC[C@H](C)[C@H](NC(=O)CNC(=O)[C@H](Cc1nnn[nH]1)NC(=O)[C@H](CO)NC(=O)[C@H](Cc1c[nH]cn1)NC(C)=O)C(=O)N[C@@H](Cc1ccccc1)C(=O)N[C@H](C(=O)N[C@@H](Cc1nnn[nH]1)C(=O)N[C@@H](CO)C(=O)N[C@@H](Cc1ccc(O)cc1)C(=O)N[C@@H](CO)C(=O)N[C@@H](CCCNC(=N)N)C(=O)N[C@@H](Cc1ccc(O)cc1)C(=O)N[C@@H](CCCNC(=N)N)C(=O)N[C@@H](CCCCN)C(=O)N[C@@H](CCc1nnn[nH]1)C(=O)N[C@@H](CC(C)C)C(=O)N[C@@H](C)C(=O)N[C@H](C(=O)N[C@@H](CCCCN)C(=O)N[C@@H](CCCCN)C(=O)N[C@@H](Cc1ccc(O)cc1)C(=O)N[C@@H](CC(C)C)C(=O)N[C@@H](C)C(=O)N[C@@H](C)C(=O)N[C@H](C(=O)N[C@@H](CC(C)C)C(N)=O)C(C)C)C(C)C)[C@@H](C)O [Peptide 13] (Ac-HS[Ala(1H-tetrazol-5-yl)]GIFT[Ala(1H-tetrazol-5-yl)]SYSRYRK[X1]LAVKKYLAAVL-NH2) | 97.4 | 95.4
